± gives the expanded uncertainty stated by the source.
Test: excess molar enthalpy (molar enthalpy of mixing); xn = mol fraction of the nth substance listed
Settings: 303.15 K, 101 kPa, Liquid

BrCBr [dibromomethane] + O=C1CCCN1
excess molar enthalpy (x1 = 0.0955): -0.0918 ± 0.00382 kcal/mol | excess molar enthalpy (x1 = 0.151): -0.134 ± 0.00526 kcal/mol | excess molar enthalpy (x1 = 0.2158): -0.177 ± 0.00669 kcal/mol | excess molar enthalpy (x1 = 0.2999): -0.216 ± 0.00813 kcal/mol | excess molar enthalpy (x1 = 0.4044): -0.246 ± 0.00908 kcal/mol | excess molar enthalpy (x1 = 0.5247): -0.241 ± 0.00884 kcal/mol | excess molar enthalpy (x1 = 0.613): -0.22 ± 0.00813 kcal/mol | excess molar enthalpy (x1 = 0.7203): -0.174 ± 0.00669 kcal/mol | excess molar enthalpy (x1 = 0.7913): -0.127 ± 0.00502 kcal/mol | excess molar enthalpy (x1 = 0.8401): -0.0968 ± 0.00382 kcal/mol | excess molar enthalpy (x1 = 0.9084): -0.0507 ± 0.00239 kcal/mol

BrCBr [dibromomethane] + C[S+](C)[O-]
excess molar enthalpy (x1 = 0.062): -0.0507 ± 0.00239 kcal/mol | excess molar enthalpy (x1 = 0.1162): -0.0856 ± 0.00359 kcal/mol | excess molar enthalpy (x1 = 0.2682): -0.175 ± 0.00669 kcal/mol | excess molar enthalpy (x1 = 0.3407): -0.201 ± 0.00741 kcal/mol | excess molar enthalpy (x1 = 0.4342): -0.227 ± 0.00837 kcal/mol | excess molar enthalpy (x1 = 0.503): -0.24 ± 0.00884 kcal/mol | excess molar enthalpy (x1 = 0.5251): -0.242 ± 0.00884 kcal/mol | excess molar enthalpy (x1 = 0.6466): -0.228 ± 0.00837 kcal/mol | excess molar enthalpy (x1 = 0.7285): -0.202 ± 0.00765 kcal/mol | excess molar enthalpy (x1 = 0.8234): -0.152 ± 0.00574 kcal/mol | excess molar enthalpy (x1 = 0.8934): -0.103 ± 0.00406 kcal/mol

BrCBr [dibromomethane] + c1ccccc1
excess molar enthalpy (x1 = 0.0931): 0.00956 ± 0.000956 kcal/mol | excess molar enthalpy (x1 = 0.253): 0.0196 ± 0.00143 kcal/mol | excess molar enthalpy (x1 = 0.3416): 0.0241 ± 0.00143 kcal/mol | excess molar enthalpy (x1 = 0.4618): 0.0284 ± 0.00167 kcal/mol | excess molar enthalpy (x1 = 0.5464): 0.0318 ± 0.00167 kcal/mol | excess molar enthalpy (x1 = 0.6705): 0.0311 ± 0.00167 kcal/mol | excess molar enthalpy (x1 = 0.7405): 0.0304 ± 0.00167 kcal/mol | excess molar enthalpy (x1 = 0.8394): 0.0237 ± 0.00143 kcal/mol | excess molar enthalpy (x1 = 0.9506): 0.0098 ± 0.000956 kcal/mol

BrCBr [dibromomethane] + CO
excess molar enthalpy (x1 = 0.1506): 0.0433 ± 0.00406 kcal/mol | excess molar enthalpy (x1 = 0.2779): 0.0978 ± 0.00765 kcal/mol | excess molar enthalpy (x1 = 0.3148): 0.113 ± 0.00837 kcal/mol | excess molar enthalpy (x1 = 0.4026): 0.138 ± 0.01 kcal/mol | excess molar enthalpy (x1 = 0.504): 0.153 ± 0.011 kcal/mol | excess molar enthalpy (x1 = 0.6195): 0.169 ± 0.012 kcal/mol | excess molar enthalpy (x1 = 0.7224): 0.187 ± 0.0131 kcal/mol | excess molar enthalpy (x1 = 0.921): 0.154 ± 0.011 kcal/mol | excess molar enthalpy (x1 = 0.9515): 0.111 ± 0.00837 kcal/mol | excess molar enthalpy (x1 = 0.9781): 0.0583 ± 0.00502 kcal/mol

Source: the NIST ThermoML archive (doi:10.1021/je9005882)
